Data published in the supplement of paper PMC6045584.
± gives the standard deviation of the averaged measurements.

Tests used:
BLEOMYCIN = compound: Cc1c(N)nc([C@H](CC(N)=O)NC[C@H](N)C(N)=O)nc1C(=O)N[C@H](C(=O)N[C@H](C)[C@@H](O)[C@H](C)C(=O)N[C@H](C(=O)NCCc1nc(-c2nc(C(=O)NCCC[S+](C)C)cs2)cs1)[C@@H](C)O)[C@@H](OC1OC(CO)C(O)C(O)C1OC1OC(CO)C(O)C(OC(N)=O)C1O)c1cnc[nH]1 [BLEOMYCIN]; test: surviving fraction relative to DMSO-only wells; higher = less growth inhibition; conditions: exposure time: 5 days
Summary of the method: (§1)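 A line counted only if its three screens reached replicate Pearson r >0.7 and median Z' >0.3. Tumour cells in log phase were seeded at 250–500 per well in 384-well plates and, after 24 hours, kept in continuous contact with inhibitors at 0.5, 1, 5, 10, 50, 100, 500 and 1000 nM for five days. Surviving fraction was taken from CellTiter-Glo luminescence relative to the median of DMSO-only wells.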

[1] = compound: C[C@@H]1CN(CC(=O)Nc2ccc3c(c2)Cc2cccc(-c4cc(=O)cc(N5CCOCC5)o4)c2S3)C[C@H](C)O1; test: as above; conditions: exposure time: 5 days
Summary of the method: as §1

Row | Test System | surviving fraction (BLEOMYCIN; 0.5 nM) | surviving fraction (BLEOMYCIN; 1 nM) | surviving fraction (BLEOMYCIN; 5 nM) | surviving fraction (BLEOMYCIN; 10 nM) | surviving fraction (BLEOMYCIN; 50 nM) | surviving fraction (BLEOMYCIN; 100 nM) | surviving fraction (BLEOMYCIN; 500 nM) | surviving fraction (BLEOMYCIN; 1000 nM) | surviving fraction ([1]; 0.5 nM) | surviving fraction ([1]; 1 nM) | surviving fraction ([1]; 5 nM) | surviving fraction ([1]; 10 nM) | surviving fraction ([1]; 50 nM) | surviving fraction ([1]; 100 nM) | surviving fraction ([1]; 500 nM) | surviving fraction ([1]; 1000 nM)
1 | LNCAP PROSTATE | 1.18 ± 0.11 | 1.04 ± 0.038 | 1.14 ± 0.085 | 0.96 ± 0.15 | 1.03 ± 0.061 | 0.868 ± 0.076 | 0.847 ± 0.074 | 0.595 ± 0.072 | 1.08 ± 0.12 | 1.12 ± 0.15 | 1.11 ± 0.11 | 1.12 ± 0.16 | 1.4 ± 0.029 | 1.43 ± 0.095 | 1.4 ± 0.11 | 1.21 ± 0.15
2 | A549 LUNG | 0.932 ± 0.023 | 0.94 ± 0.032 | 0.956 ± 0.023 | 0.915 ± 0.046 | 1 ± 0.042 | 1.01 ± 0.018 | 0.825 ± 0.019 | 0.593 ± 0.032 | 1.05 ± 0.049 | 1.05 ± 0.025 | 1.08 ± 0.02 | 1.08 ± 0.021 | 1.07 ± 0.012 | 1.098 ± 0.0099 | 1.1 ± 0.016 | 1.13 ± 0.032
3 | SCC90 HEADNECK | 0.933 ± 0.085 | 0.929 ± 0.061 | 0.94 ± 0.082 | 0.946 ± 0.018 | 1.06 ± 0.089 | 1.03 ± 0.085 | 0.885 ± 0.11 | 0.783 ± 0.044 | 1.01 ± 0.16 | 1.03 ± 0.11 | 1.07 ± 0.027 | 1.12 ± 0.033 | 1.02 ± 0.042 | 0.952 ± 0.077 | 0.963 ± 0.03 | 0.971 ± 0.12
4 | SUM44 BREAST | 0.917 ± 0.045 | 0.918 ± 0.013 | 0.92 ± 0.058 | 0.93 ± 0.025 | 1.06 ± 0.037 | 0.973 ± 0.088 | 0.853 ± 0.059 | 0.824 ± 0.023 | 0.936 ± 0.036 | 0.936 ± 0.034 | 0.977 ± 0.028 | 0.968 ± 0.023 | 0.911 ± 0.044 | 0.915 ± 0.067 | 0.898 ± 0.083 | 0.892 ± 0.031
5 | MHM BONE | 0.966 ± 0.034 | 0.975 ± 0.015 | 1.01 ± 0.03 | 0.985 ± 0.019 | 0.999 ± 0.014 | 0.921 ± 0.016 | 0.718 ± 0.013 | 0.665 ± 0.0046 | 1.03 ± 0.024 | 1.01 ± 0.055 | 1.05 ± 0.012 | 1.05 ± 0.021 | 1.08 ± 0.0062 | 1.1 ± 0.018 | 1.08 ± 0.024 | 1.07 ± 0.032
6 | H23 LUNG | 0.955 ± 0.013 | 0.954 ± 0.032 | 0.886 ± 0.057 | 0.763 ± 0.028 | 0.509 ± 0.026 | 0.338 ± 0.0076 | 0.193 ± 0.014 | 0.118 ± 0.011 | 1.08 ± 0.042 | 1.05 ± 0.021 | 1.11 ± 0.048 | 1.1 ± 0.033 | 1.09 ± 0.083 | 1.17 ± 0.056 | 1.06 ± 0.036 | 1.05 ± 0.045
7 | SUM149 BREAST | 0.779 ± 0.092 | 0.889 ± 0.09 | 0.707 ± 0.034 | 0.451 ± 0.08 | 0.273 ± 0.029 | 0.255 ± 0.069 | 0.106 ± 0.015 | 0.048 ± 0.013 | 0.874 ± 0.049 | 0.885 ± 0.1 | 0.96 ± 0.089 | 0.862 ± 0.035 | 1.01 ± 0.017 | 0.917 ± 0.029 | 0.819 ± 0.11 | 0.667 ± 0.024
8 | MFM223 BREAST | 0.719 ± 0.028 | 0.784 ± 0.13 | 0.702 ± 0.076 | 0.703 ± 0.032 | 0.961 ± 0.049 | 0.923 ± 0.0095 | 0.789 ± 0.047 | 0.681 ± 0.047 | 1.17 ± 0.17 | 1.2 ± 0.037 | 1.17 ± 0.052 | 1.19 ± 0.02 | 0.935 ± 0.1 | 0.869 ± 0.12 | 0.885 ± 0.035 | 0.794 ± 0.1
9 | ASKA SYNOVIAL | 0.897 ± 0.1 | 0.895 ± 0.046 | 0.94 ± 0.096 | 0.931 ± 0.028 | 0.811 ± 0.027 | 0.689 ± 0.026 | 0.427 ± 0.029 | 0.343 ± 0.015 | 1.17 ± 0.013 | 1.21 ± 0.12 | 1.26 ± 0.11 | 1.21 ± 0.093 | 1.17 ± 0.059 | 1.15 ± 0.1 | 1.13 ± 0.1 | 0.978 ± 0.14
10 | HSSYII SYNOVIAL | 0.797 ± 0.068 | 0.872 ± 0.045 | 0.768 ± 0.045 | 0.788 ± 0.017 | 0.6562 ± 0.0056 | 0.572 ± 0.029 | 0.224 ± 0.014 | 0.14 ± 0.0027 | 0.975 ± 0.027 | 0.956 ± 0.032 | 0.931 ± 0.015 | 0.99 ± 0.041 | 0.891 ± 0.011 | 0.867 ± 0.043 | 0.84 ± 0.055 | 0.74 ± 0.041
